# Experiments:
# chicken GPR120 (cGPR120) [1] = target: T1, chicken GPR120 (cGPR120) (Gallus gallus, UniProt A0A8V0ZCZ6); assay: Fura-2 Ca2+ imaging in transfected HEK293T cells, Hill fit; format: cell-based; conditions: agonist, pH 7.4, about 37 C
# T1 sequence (A0A8V0ZCZ6 1-362): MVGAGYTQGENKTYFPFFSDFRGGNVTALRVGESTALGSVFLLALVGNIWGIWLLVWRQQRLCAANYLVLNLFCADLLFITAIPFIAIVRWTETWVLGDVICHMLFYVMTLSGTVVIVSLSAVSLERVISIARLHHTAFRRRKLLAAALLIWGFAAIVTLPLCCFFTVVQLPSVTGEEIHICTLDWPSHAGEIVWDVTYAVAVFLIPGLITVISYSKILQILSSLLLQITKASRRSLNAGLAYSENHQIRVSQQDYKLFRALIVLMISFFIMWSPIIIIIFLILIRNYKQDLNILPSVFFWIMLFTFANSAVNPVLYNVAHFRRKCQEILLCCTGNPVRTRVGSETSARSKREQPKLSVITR
# chicken GPR120 (cGPR120) [2] = target: T1, chicken GPR120 (cGPR120); assay: as above; format: cell-based
smiles,measurement,setting,value
"CC/C=C\C/C=C\C/C=C\C/C=C\C/C=C\CCCC(=O)O [EPA, eicosapentaenoic acid]","Fura-2 Ca2+ imaging in transfected HEK293T cells, Hill fit","chicken GPR120 (cGPR120) [1]; 0.1-7 mmol/L in well, stock in ethanol",EPA and DHA activated cGPR120 in a dose-dependent manner
"CCCCC/C=C\C/C=C\CCCCCCCC(=O)O [LA, linoleic acid]","Fura-2 Ca2+ imaging in transfected HEK293T cells, Hill fit","chicken GPR120 (cGPR120) [1]; 1-10 mmol/L in well, stock in DMSO",cGPR120 cells were activated in a dose-dependent manner by LA
"CCCCC/C=C\C/C=C\C/C=C\C/C=C\CCCC(=O)O [AA, arachidonic acid]",EC50,chicken GPR120 (cGPR120) [2],1.04 mM
"CC/C=C\C/C=C\C/C=C\C/C=C\C/C=C\C/C=C\CCC(=O)O [DHA, docosahexaenoic acid]","Fura-2 Ca2+ imaging in transfected HEK293T cells, Hill fit","chicken GPR120 (cGPR120) [1]; 0.1-3 mmol/L in well, stock in ethanol",EPA and DHA activated cGPR120 in a dose-dependent manner

# From paper PMC9346598 (The Journal of Poultry Science, 2022)
